Where no end group is shown, it is not given here. [ ]: non-standard residue; d: D form. N‑methyl fused di‑pyrrolidine (I) = not defined here; phenylmethanamine linker (IX) = not defined here; NP‑inspired fragment III = not defined here; pyrrolidine (IV) = not defined here; NMeF = CN[C@@H](Cc1ccccc1)C(=O)O; NMeL = CN[C@@H](CC(C)C)C(=O)O; NMeV = CN[C@H](C(=O)O)C(C)C
What was measured:
[1] = biological target: T1, human MC4R (Homo sapiens, UniProt P32245); experiment: cAMP assay (LANCE) in T-Rex-293 cells expressing MC4R; assay type: cell-based; details: cAMP assay; mean (± SEM) of at least three independent experiments; read-out: EC50 hMC4R cAMP
T1 construct: expressed in transfected cells

[2] = biological target: T2, human MC1R (Homo sapiens, UniProt Q01726); experiment: cAMP assay (LANCE) in T-Rex-293 cells expressing MC1R; assay type: cell-based; details: for EC50: cAMP assay, mean (± SEM) of at least three independent experiments, read-out: EC50 hMC1R cAMP
T2 construct: expressed in transfected cells

[3] = biological target: T3, human MC5R (Homo sapiens, UniProt P33032); experiment: Melanocortin receptor radioligand binding (SPA, [125I]-NDP-α-MSH displacement), MC5R; details: for IC50: competitive binding, [125I]-NDP-α-MSH, mean (± SEM) of at least three independent experiments, read-out: IC50 hMC5R binding
T3 construct: expressed in transfected cells; host or cells: HEK293-6E suspension cells, transient expression; membranes

[4] = biological target: T1, human MC4R; experiment: Melanocortin receptor radioligand binding (SPA, [125I]-NDP-α-MSH displacement), MC4R; details: competitive binding, mean (± SEM) of at least three independent experiments, read-out: IC50 hMC4R binding
[5] = biological target: T4, human MC3R (Homo sapiens, UniProt P41968); experiment: Melanocortin receptor radioligand binding (SPA, [125I]-NDP-α-MSH displacement), MC3R; details: competitive binding, mean (± SEM) of at least three independent experiments, read-out: IC50 hMC3R binding
T4 construct: expressed in transfected cells

[6] = biological target: T2, human MC1R; experiment: Melanocortin receptor radioligand binding (SPA, [125I]-NDP-α-MSH displacement), MC1R; details: competitive binding, mean (± SEM) of at least three independent experiments, read-out: IC50 hMC1R binding
[7] = biological target: T4, human MC3R; experiment: cAMP assay (LANCE) in T-Rex-293 cells expressing MC3R; assay type: cell-based; details: cAMP assay; mean (± SEM) of at least three independent experiments; read-out: EC50 hMC3R cAMP
[8] = biological target: T5, SPSB2 (Homo sapiens, UniProt Q99619); experiment: SPR
T5 chain: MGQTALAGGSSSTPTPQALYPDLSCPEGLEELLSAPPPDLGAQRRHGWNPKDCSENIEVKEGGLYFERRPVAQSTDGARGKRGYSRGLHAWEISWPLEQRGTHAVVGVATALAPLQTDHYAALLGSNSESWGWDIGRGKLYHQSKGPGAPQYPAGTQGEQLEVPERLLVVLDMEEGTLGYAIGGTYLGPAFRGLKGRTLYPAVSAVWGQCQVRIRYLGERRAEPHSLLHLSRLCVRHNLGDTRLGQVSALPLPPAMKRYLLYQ

T4 sequence (P41968 whole entry): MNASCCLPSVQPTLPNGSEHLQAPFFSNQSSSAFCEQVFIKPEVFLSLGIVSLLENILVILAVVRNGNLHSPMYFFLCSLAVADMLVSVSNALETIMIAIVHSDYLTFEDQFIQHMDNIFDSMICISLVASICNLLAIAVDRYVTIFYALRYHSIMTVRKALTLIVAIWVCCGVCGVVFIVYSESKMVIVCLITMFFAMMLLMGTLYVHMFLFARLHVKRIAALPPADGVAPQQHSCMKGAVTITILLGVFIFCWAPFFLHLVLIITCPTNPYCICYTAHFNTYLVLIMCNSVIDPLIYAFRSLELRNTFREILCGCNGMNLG
T3 sequence (P33032 whole entry): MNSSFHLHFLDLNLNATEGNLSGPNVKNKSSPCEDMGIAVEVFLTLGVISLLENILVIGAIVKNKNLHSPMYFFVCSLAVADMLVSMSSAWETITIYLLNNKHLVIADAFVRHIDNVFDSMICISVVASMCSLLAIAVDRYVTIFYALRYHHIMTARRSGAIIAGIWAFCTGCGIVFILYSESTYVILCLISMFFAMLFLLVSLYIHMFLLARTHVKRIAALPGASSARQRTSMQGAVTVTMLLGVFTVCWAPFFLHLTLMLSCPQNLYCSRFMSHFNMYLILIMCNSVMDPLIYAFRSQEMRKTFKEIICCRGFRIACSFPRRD
T2 sequence (Q01726 whole entry): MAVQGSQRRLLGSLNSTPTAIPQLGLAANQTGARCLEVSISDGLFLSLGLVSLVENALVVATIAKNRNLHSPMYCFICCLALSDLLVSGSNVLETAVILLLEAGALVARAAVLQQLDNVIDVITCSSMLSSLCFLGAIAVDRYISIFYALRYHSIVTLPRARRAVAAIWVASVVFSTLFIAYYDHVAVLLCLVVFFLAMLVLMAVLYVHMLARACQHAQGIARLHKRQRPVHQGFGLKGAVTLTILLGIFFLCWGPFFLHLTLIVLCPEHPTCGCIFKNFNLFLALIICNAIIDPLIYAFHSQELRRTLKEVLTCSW
T1 sequence (P32245 whole entry): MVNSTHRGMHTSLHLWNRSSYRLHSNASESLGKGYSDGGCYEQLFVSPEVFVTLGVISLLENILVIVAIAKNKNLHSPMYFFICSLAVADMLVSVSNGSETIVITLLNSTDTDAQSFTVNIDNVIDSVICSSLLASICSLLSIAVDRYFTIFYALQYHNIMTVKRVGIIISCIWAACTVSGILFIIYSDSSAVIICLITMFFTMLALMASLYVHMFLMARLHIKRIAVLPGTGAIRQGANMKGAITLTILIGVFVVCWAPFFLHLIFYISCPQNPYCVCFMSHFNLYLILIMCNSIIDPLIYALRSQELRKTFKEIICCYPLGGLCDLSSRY

CN1C(=O)[C@@H]2N[C@H](c3ccc(cc3)C(=O)NCCCC[C@@H](C(=O)N[C@@H](Cc3ccc(O)cc3)C(N)=O)NC(=O)[C@H](CC(N)=O)NC(=O)[C@@H](Cc3ccccc3)NC(=O)[C@@H](Cc3ccccc3)NC(=O)[C@H](CCCNC(=N)N)NC(=O)[C@@H]1Cc1ccccc1)[C@@H]1C(=O)N(c3ccccc3)C(=O)[C@@H]12 [K1-major, [II-FRffNK ]Y]
EC50 [1]: > 100 µM | Emax ([2]; T-REx-293, read-out: % Effect hMC1R cAMP): 47% | EC50 [2]: 4.1 ± 0.4 µM | IC50 [3]: 4.1 µM | selectivity for MC5R against MC1R ([3]; ratio of binding IC50, MC1R versus MC5R): 7 fold | selectivity for MC5R against MC3R ([3]; ratio of binding IC50, MC3R versus MC5R): 5 fold | selectivity for MC5R against MC4R ([3]; ratio of binding IC50, MC4R versus MC5R): 13 fold | IC50 [4]: 54 ± 4 µM | IC50 [5]: 19 ± 3 µM | IC50 [6]: 31 ± 3 µM | EC50 [7]: > 100 µM

CN1C(=O)[C@@H]2[C@H](C1=O)[C@H]1N[C@@H]2C(=O)N(C)[C@@H](Cc2ccccc2)C(=O)N[C@@H](CCCNC(=N)N)C(=O)N[C@H](Cc2ccccc2)C(=O)N[C@H](Cc2ccccc2)C(=O)N[C@@H](CC(N)=O)C(=O)N[C@H](C(=O)NCC(N)=O)CCCCNC(=O)c2ccc1cc2 [K2-minor, [I-FRffNK ]G]
EC50 [1]: > 10 µM | EC50 [2]: > 10 µM | IC50 [3]: > 10 µM | IC50 [4]: > 10 µM | IC50 [5]: > 10 µM | IC50 [6]: > 10 µM | EC50 [7]: > 10 µM

B1: PepNat D4-major (peptide)
chain: [NMeF]DINNNKG-NH2
modifications: bridge (positions not given here) via pyrrolidine (IV); reading uncertain; also: macrocycle via pyrrolidine (IV)
Kd [8]: 0.018 µM

Ac-KEEKDINNNVKKT [iNOS peptide 22]
Kd [8]: 0.0071 µM

B2: PepNat D13-minor (peptide)
chain: [NMeV]DINNNKG-NH2
modifications: bridge (positions not given here) via N‑methyl fused di‑pyrrolidine (I); reading uncertain; also: macrocycle via N-methyl fused di-pyrrolidine (I), minor diastereomer
Kd [8]: 0.078 µM

B3: PepNat D1-major (peptide)
chain: [NMeF]DINNNKG-NH2
modifications: bridge (positions not given here) via N‑methyl fused di‑pyrrolidine (I); reading uncertain; also: macrocycle via N-methyl fused di-pyrrolidine (I)
Kd [8]: 0.033 µM

B4: PepNat D12-minor (peptide)
chain: [NMeL]DINNNKG-NH2
modifications: bridge (positions not given here) via N‑methyl fused di‑pyrrolidine (I); reading uncertain; also: macrocycle via N-methyl fused di-pyrrolidine (I), minor diastereomer
Kd [8]: 0.127 µM

B5: macrocycle 27 (peptide)
chain: [NMeF]DINNNK
modifications: linker (positions not given here) via phenylmethanamine linker (IX); reading uncertain; also: cyclized via phenylmethanamine linker (IX), attachment points not given here
Kd [8]: 0.087 µM

B6: PepNat D3-major (peptide)
chain: [NMeF]DINNNKG-NH2
modifications: bridge (positions not given here) via NP‑inspired fragment III; reading uncertain; also: macrocycle via NP-inspired fragment III
Kd [8]: 0.309 µM

B7: PepNat D13-major (peptide)
chain: [NMeV]DINNNKG-NH2
modifications: bridge (positions not given here) via N‑methyl fused di‑pyrrolidine (I); reading uncertain; also: macrocycle via N-methyl fused di-pyrrolidine (I)
Kd [8]: 0.015 µM

VDINNNKG (macrocycle via N-phenyl fused di-pyrrolidine (II), N-Me-Val) [PepNat D18-major]
Kd [8]: 0.0022 µM
